Literature values in PubChem BioAssay AID1259409 (Chemical Carcinogenesis Research Information System (CCRIS), 2018).

Tested on: rodent chemically induced tumor inhibition, incidence and multiplicity
Assay: CCRIS tumor inhibitor studies
Conditions: Promoter: NONE USED

For CCN(CC)C(=S)S, the outcome (Carcinogen: DIETHYLNITROSAMINE, 55-18-5, Dose [Inhibitor]: 0, 50 MG/KG 1/WK FOR 5 WK ADMINISTERED 4 HR POST EACH CARCINOGEN DOSE (STUDY DURATION: 6 MO), Route [Inhibitor]: INTRAPERITONEAL, Species: RAT, Strain/Sex: BD6/FEMALE, Target Tissue: Type of Lesion: ESOPHAGUS: TUMOR, Dose [Carcinogen]: 80 MG/KG BW 1/WK FOR 5 WK) is given as 6%, 77, -1183%, p<0.001, the “tumour outcome (control, treated, inhibition, significance)” value (Carcinogen: DIETHYLNITROSAMINE, 55-18-5, Dose [Inhibitor]: 0, 50 MG/KG 1/WK FOR 5 WK ADMINISTERED 4 HR POST EACH CARCINOGEN DOSE (STUDY DURATION: 6 MO), Route [Inhibitor]: INTRAPERITONEAL, Species: RAT, Strain/Sex: BD6/FEMALE, Target Tissue: Type of Lesion: LIVER: TUMOR, Dose [Carcinogen]: 80 MG/KG BW 1/WK FOR 5 WK) is given as 44%, 77%, -75%, not significant and the “tumour outcome (control, treated, inhibition, significance)” value (Carcinogen: DIETHYLNITROSAMINE, 55-18-5, Dose [Inhibitor]: 0, 50 MG/KG 1/WK FOR 5 WK ADMINISTERED 4 HR POST EACH CARCINOGEN TREATMENT (STUDY DURATION: 6 MO), Route [Inhibitor]: INTRAPERITONEAL, Species: RAT, Strain/Sex: BD6/FEMALE, Target Tissue: Type of Lesion: ESOPHAGUS: TUMOR, Dose [Carcinogen]: 80 MG/KG BW 1/WK FOR 5 WK) is given as 14%, 94%, -571%, p<0.001. For the same compound, the “tumour outcome (control, treated, inhibition, significance)” value (Carcinogen: DIETHYLNITROSAMINE, 55-18-5, Dose [Inhibitor]: 0, 50 MG/KG 1/WK FOR 5 WK ADMINISTERED 4 HR POST EACH CARCINOGEN TREATMENT (STUDY DURATION: 6 MO), Route [Inhibitor]: INTRAPERITONEAL, Species: RAT, Strain/Sex: BD6/FEMALE, Target Tissue: Type of Lesion: LIVER: TUMOR, Dose [Carcinogen]: 80 MG/KG BW 1/WK FOR 5 WK) was 52%, 44%, 15%, not significant, the “tumour outcome (control, treated, inhibition, significance)” value (Carcinogen: DIETHYLNITROSAMINE, 55-18-5, Dose [Inhibitor]: 0, 50 MG/KG 1/WK FOR 5 WK ADMINISTERED 24 HR POST EACH CARCINOGEN TREATMENT (STUDY DURATION: 6 MO), Route [Inhibitor]: INTRAPERITONEAL, Species: RAT, Strain/Sex: BD6/FEMALE, Target Tissue: Type of Lesion: LIVER: TUMOR, Dose [Carcinogen]: 80 MG/KG BW 1/WK FOR 5 WK) was 52%, 32%, 38%, not significant and the “tumour outcome (control, treated, inhibition, significance)” value (Carcinogen: DIETHYLNITROSAMINE, 55-18-5, Dose [Inhibitor]: 0, 50 MG/KG 1/WK FOR 5 WK ADMINISTERED 24 HR POST EACH CARCINOGEN TREATMENT(STUDY DURATION: 6 MO), Route [Inhibitor]: INTRAPERITONEAL, Species: RAT, Strain/Sex: BD6/FEMALE, Target Tissue: Type of Lesion: ESOPHAGUS: TUMOR, Dose [Carcinogen]: 80 MG/KG BW 1/WK FOR 5 WK) was 14%, 4%, 71%, not significant.

For NCC(CC(=O)O)c1ccc(Cl)cc1 (centres undefined), the “tumour outcome (control, treated, inhibition, significance)” value (Carcinogen: N-METHYL-N'-NITRO-N-NITROSOGUANIDINE, 70-25-7, Dose [Inhibitor]: 0, 4 MG/KG IN NACL INJECTED 1/2 D FOR DURATION OF STUDY BEGINNING 1 WK POST CARCINOGEN DOSE (STUDY DURATION: 52 WK), Route [Inhibitor]: INTRAPERITONEAL, Species: RAT, Strain/Sex: WISTAR/MALE, Target Tissue: Type of Lesion: STOMACH: ADENOCARCINOMA, Dose [Carcinogen]: 50 UG/ML IN DRINKING WATER FOR 25 WK) is listed as 13/19 (68%), 5/20 (25%), 63%, not calculated, the “tumour outcome (control, treated, inhibition, significance)” value (Carcinogen: N-METHYL-N'-NITRO-N-NITROSOGUANIDINE, 70-25-7, Dose [Inhibitor]: 0, 8 MG/KG BW 1/2 D FOR 25 WK BEGINNING POST CARCINOGEN TREATMENT (STUDY DURATION: 52 WK), Route [Inhibitor]: SUBCUTANEOUS, Species: RAT, Strain/Sex: WISTAR/MALE, Target Tissue: Type of Lesion: STOMACH: TUMOR, Dose [Carcinogen]: 50 UG/ML IN DRINKING WATER FOR 25 WK) is listed as 19/20 (95%), 10/20 (50%), 47%, p<0.001 and the “tumour outcome (control, treated, inhibition, significance)” value (Carcinogen: N-METHYL-N'-NITRO-N-NITROSOGUANIDINE, 70-25-7, Dose [Inhibitor]: 0, 8 MG/KG IN NACL INJECTED 1/2 D FOR DURATION OF STUDY BEGINNING 1 WK POST CARCINOGEN DOSE (STUDY DURATION: 52 WK), Route [Inhibitor]: INTRAPERITONEAL, Species: RAT, Strain/Sex: WISTAR/MALE, Target Tissue: Type of Lesion: STOMACH: ADENOCARCINOMA, Dose [Carcinogen]: 50 UG/ML IN DRINKING WATER FOR 25 WK) is listed as 13/19 (68%), 5/18 (28%), 59%, not calculated. For the same compound, the “tumour outcome (control, treated, inhibition, significance)” value (Carcinogen: N-METHYL-N'-NITRO-N-NITROSOGUANIDINE, 70-25-7, Dose [Inhibitor]: 0, 8 MG/KG/BW SUSPENSION IN OLIVE OIL 1/2 D BEGINNING POST CARCINOGEN TREATMENT AND CONTINUING FOR DURATION OF STUDY (ST, Route [Inhibitor]: SUBCUTANEOUS, Species: RAT, Strain/Sex: WISTAR/MALE, Target Tissue: Type of Lesion: STOMACH: ADENOCARCINOMA, Dose [Carcinogen]: 50 UG/ML IN DRINKING WATER FOR 25 WK) was 16/20 (80%), 8/20 (40%), 50%, p<0.05.

For Oc1ccc(O)cc1, the “tumour outcome (control, treated, inhibition, significance)” value (Carcinogen: BENZO[A]PYRENE, 50-32-8, Dose [Inhibitor]: 5 MG IN 0.1 ML ACETONE 3/WK ADMINISTERED SIMULTANEOUSLY WITH CARCINOGEN FOR DURATION OF STUDY (STUDY DURATION: 368 D), Route [Inhibitor]: DERMAL, Species: MOUSE, Strain/Sex: ICR/FEMALE, Target Tissue: Type of Lesion: SKIN: PAPILLOMA, Dose [Carcinogen]: 5 UG IN 0.1 ML ACETONE 3/WK FOR DURATION OF STUDY) is listed as 14/50 (28%), 7/50 (14%), 50%, not calculated, the “tumour outcome (control, treated, inhibition, significance)” value (Carcinogen: BENZO[A]PYRENE, 50-32-8, Dose [Inhibitor]: 5 MG IN 0.1 ML ACETONE 3/WK ADMINISTERED SIMULTANEOUSLY WITH CARCINOGEN FOR DURATION OF STUDY (STUDY DURATION: 368 D), Route [Inhibitor]: DERMAL, Species: MOUSE, Strain/Sex: ICR/FEMALE, Target Tissue: Type of Lesion: SKIN: SQUAMOUS CARCINOMA, Dose [Carcinogen]: 5 UG IN 0.1 ML ACETONE 3/WK FOR DURATION OF STUDY) is listed as 10/50 (20%), 3/50 (6%), 70%, not calculated and the “tumour outcome (control, treated, inhibition, significance)” value (Carcinogen: N-ETHYL-N-HYDROXYETHYLNITROSAMINE, 13147-25-6, Dose [Inhibitor]: 0, 0.8% IN DIET FOR 36 WK BEGINNING 1 WK POST CARCINOGEN TREATMENT (STUDY DURATION: 40 WK), Route [Inhibitor]: ORAL, Species: RAT, Strain/Sex: WISTAR/MALE, Target Tissue: Type of Lesion: LIVER: HEPATOCELLULAR ADENOMA, Dose [Carcinogen]: 0.1% IN DRINKING WATER FOR 3 WK) is listed as 10/17 (59%), 11/18 (61%), -3%, not significant. The “tumour outcome (control, treated, inhibition, significance)” value (Carcinogen: N-ETHYL-N-HYDROXYETHYLNITROSAMINE, 13147-25-6, Dose [Inhibitor]: 0, 0.8% IN DIET FOR 36 WK BEGINNING 1 WK POST CARCINOGEN TREATMENT (STUDY DURATION: 40 WK), Route [Inhibitor]: ORAL, Species: RAT, Strain/Sex: WISTAR/MALE, Target Tissue: Type of Lesion: LIVER: HEPATOCELLULAR CARCINOMA, Dose [Carcinogen]: 0.1% IN DRINKING WATER FOR 3 WK) was 7/17 (41%), 3/18 (17%), 56%, not significant.
